As a reminder, the Ki is the equilibrium dissociation constant of an inhibitor or competing ligand from its target. A low value points to tighter binding.

Numbered stars: 1 amine (or outer) side, 2 acyl side, 3 side chain; on linkers, the order of the positions; unused ones are H or OH. Bridge positions count the residues as written; N and C are the ends. Square brackets hold non-standard residues; d marks the D form. Peptide text beside a SMILES is read from it. * marks the point of attachment. hhCys(CH2CO) = O=C([C@H](CCCSCC(=O)[*:3])N[*:1])[*:2]; X9 = CC(C)(S)CNCCN(CCCCC(=O)*)CC(C)(C)S; X3 = CC(C)(S)CNCCN(CCCCCN*)CC(C)(C)S; NMeF = CN[C@@H](Cc1ccccc1)C(=O)O; hCys = N[C@@H](CCS)C(=O)O

These results are taken from patent publication US6017512A, “Radiolabeled peptides” (Diatide, Inc., priority 1997, dated 2000).

T1 sequence (P30680 whole entry): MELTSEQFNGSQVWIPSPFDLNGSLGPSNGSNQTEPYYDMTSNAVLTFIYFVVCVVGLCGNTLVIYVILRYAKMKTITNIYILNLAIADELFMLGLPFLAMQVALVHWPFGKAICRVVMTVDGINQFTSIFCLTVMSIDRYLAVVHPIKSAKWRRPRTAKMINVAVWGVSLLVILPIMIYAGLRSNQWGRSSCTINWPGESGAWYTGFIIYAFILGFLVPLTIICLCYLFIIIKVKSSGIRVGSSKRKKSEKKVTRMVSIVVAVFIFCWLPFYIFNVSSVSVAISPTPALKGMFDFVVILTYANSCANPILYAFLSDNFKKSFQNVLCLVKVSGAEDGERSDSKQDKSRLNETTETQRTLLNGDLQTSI

The assay addresses T1, somatostatin receptors (Rattus norvegicus, UniProt P30680).
T1 construct: endogenous in cells; host or cells: AR42J rat pancreatic tumor cell line, membrane preparation
Description: Inhibition of binding of [125I-Tyr11]somatostatin-14 to AR42J rat pancreatic tumor cell membranes. The conditions noted are these: uncomplexed peptides, displacement of [125I-Tyr11]somatostatin-14 (0.5 nM). The protocol:
Inhibition of Binding of [^125 I-Tyr^11 ]somatostatin-14 to AR42J Rat Pancreatic Tumor Cell Membranes
The rat pancreatic tumor cell line AR42J which expresses the somatostatin receptor was cultured in Dulbecco's minimal essential media (DMEM) supplemented with 10% fetal bovine serum (FBS) and 8 mM glutamine in a humidified 5% CO2 atmosphere at 37° C. in T-flasks. Harvested cells were homogenized in cold 50 mM Tris-HCl buffer (pH 7.4) and the homogenate then centrifuged at 39,000 g for 10 min at 4° C. Pellets were washed once with buffer and then resuspended in an ice-cold solution of 10 mM Tris-HCl (pH 7.4). Equal aliquots of this cell membrane preparation were incubated with [^125 I-Tyr^11 ]somatostatin-14 (at a final concentration of 0.5 nM and 750,000 cpm/mL, at a specific activity of 2000 Ci/mmol, Amersham, Arlington Heights, Ill.) and peptide or peptide-rheniumcomplex at a final concentration of from 10^-11 M to 10^-6 M in a solution of 50 mM HEPES (pH 7.4) containing 1% bovine serum albumin (BSA), 5 mM MgCl2, Trasylol (200,000 International Units), bacitracin (0.02 mg/mL) and phenylmethylsulfonylfluoride (0.02 mg/mL) for 25 min at 30° C. Using a filtration manifold, this mixture was filtered through a polyethyleneimine-washed GC/F filter (Whatman, Maidstone, England), and the residue remaining on the filter washed thrice with 5 mL cold HEPES buffer. The filter and a sample of the filter washings were then counted in a gamma counter. To assess non-specific binding, the assay was performed in the presence of unlabeled somatostatin-14 at 200 nM. Data analysis including Hill plots of the data provided inhibition constants (see Bylund & Yamamura, "Methods of receptor binding", in Methods in Neurotransmitter Receptor Analysis, Yamamura et al., eds., Raven Press: New York, 1990).
With `C[C@@H](O)[C@@H]1NC(=O)[C@H](CCCCN)NC(=O)[C@@H](Cc2c[nH]c3ccccc23)NC(=O)[C@H](Cc2ccccc2)NC(=O)[C@H](Cc2ccccc2)NC(=O)CSCC[C@@H](C(=O)O)NC(=O)[C@H](Cc2ccccc2)NC1=O` [CH2 CO.FFWD KTF.Hcy] ({CH2CO}-FF[dW]KTF[hCys]-OH; thioether N-7), the Ki stood at 9.8 nM.
For `C[C@@H](O)[C@@H]1NC(=O)[C@H](CCCCN)NC(=O)[C@@H](Cc2c[nH]c3ccccc23)NC(=O)[C@H](Cc2ccccc2)NC(=O)[C@H](Cc2ccccc2)NC(=O)CSCCC[C@@H](C(N)=O)NC(=O)[C@H](Cc2ccccc2)NC1=O` [CH2 CO.FFWD KTF.Hhc.amide] (FF[dW]KTF[hhCys(CH2CO)]-NH2; lactam N-7), the affinity corresponds to a Ki of 0.41 nM.
`C[C@@H](O)[C@@H]1NC(=O)[C@H](CCCCN)NC(=O)[C@@H](Cc2c[nH]c3ccccc23)NC(=O)[C@H](Cc2ccccc2)NC(=O)[C@H](Cc2ccccc2)NC(=O)CSC[C@@H](C(=O)NCCCCCN(CCNCC(C)(C)S)CC(C)(C)S)NC(=O)[C@H](Cc2ccccc2)NC1=O` [CH2 CO.FFWD KTFC.[BAM]] ({CH2CO}-FF[dW]KTFC-X3; thioether N-7): the inhibitory constant (Ki) was 1.9 nM.
Take `C[C@@H](O)[C@@H]1NC(=O)[C@H](CCCCN)NC(=O)[C@@H](Cc2c[nH]c3ccccc23)NC(=O)[C@H](Cc2ccccc2)NC(=O)[C@H](Cc2ccccc2)NC(=O)CSC[C@@H](C(N)=O)NC(=O)[C@H](Cc2ccccc2)NC1=O` [CH2 CO.FFWD KTFC.amide] ({CH2CO}-FF[dW]KTFC-NH2; thioether N-7): affinity was put at a Ki of 0.45 nM.
Under `C[C@@H](O)[C@@H]1NC(=O)[C@H](CCCCN)NC(=O)[C@@H](Cc2c[nH]c3ccccc23)NC(=O)[C@H](Cc2ccccc2)NC(=O)[C@H](Cc2ccccc2)NC(=O)CSC[C@@H](C(=O)O)NC(=O)[C@H](Cc2ccccc2)NC1=O` [CH2 CO.FFWD KTFC] ({CH2CO}-FF[dW]KTFC-OH; thioether N-7) stands 4 nM; under `C[C@@H](O)[C@@H]1NC(=O)[C@H](CCCCN)NC(=O)[C@@H](Cc2c[nH]c3ccccc23)NC(=O)[C@H](Cc2ccc(O)cc2)NC(=O)[C@H](Cc2ccccc2)NC(=O)CSC[C@@H](C(N)=O)NC(=O)[C@H](Cc2ccccc2)NC1=O` [CH2 CO.FYWD KTFC.amide] ({CH2CO}-FY[dW]KTFC-NH2; thioether N-7), 0.16 nM; under `C[C@@H](O)[C@@H]1NC(=O)[C@H](Cc2ccccc2)NC(=O)[C@H]([C@@H](C)O)NC(=O)[C@H](CCCCN)NC(=O)[C@@H](Cc2c[nH]c3ccccc23)NC(=O)[C@H](Cc2ccccc2)NC(=O)[C@H](Cc2ccccc2)NC(=O)[C@H](CC(N)=O)NC(=O)CSC[C@@H](C(=O)O)NC1=O` [CH2 CO.NFFWD KTFTC] ({CH2CO}-NFF[dW]KTFTC-OH; thioether N-9), 2.7 nM.
Then `CC(C)[C@@H]1NC(=O)[C@H](CCCCN)NC(=O)[C@@H](Cc2c[nH]c3ccccc23)NC(=O)[C@H](Cc2ccc(O)cc2)NC(=O)[C@H](Cc2ccccc2)N(C)C(=O)[C@H](CCC(=O)NCCCCCN(CCNCC(C)(C)S)CC(C)(C)S)NC1=O` [cyclo.(N--CH3)F.YWD KV.E.[BAM], cyclo.(N--CH3)Phe--Tyr--D--Trp--Lys--Val--Glu(BAM)] (cyclo([NMeF]Y[dW]KVE(X3))), with 2.6 nM.
Then `CC(C)[C@@H]1NC(=O)[C@H](CCCCN)NC(=O)[C@@H](Cc2c[nH]c3ccccc23)NC(=O)[C@H](Cc2ccc(O)cc2)NC(=O)[C@H](Cc2ccccc2)N(C)C(=O)[C@H](CCCCNC(=O)CCCCN(CCNCC(C)(C)S)CC(C)(C)S)NC1=O` [cyclo.(N--CH3)F.YWD KV.K.[BAT], cyclo.(N--CH3)Phe--Tyr--D--Trp--Lys--Val--Lys(BAT)] (cyclo([NMeF]Y[dW]KVK(X9))), with 0.46 nM.
For the compound `CC(C)[C@@H]1NC(=O)[C@H](CCCCN)NC(=O)[C@@H](Cc2c[nH]c3ccccc23)NC(=O)[C@H](Cc2ccc(O)cc2)NC(=O)[C@H](CS)NC(=O)[C@H](CS)NC1=O` [cyclo.CYWD KVC, cyclo Cys--Tyr--D--Trp--Lys--Val--Cys] (cyclo(CY[dW]KVC)), the affinity, expressed as Ki, was 0.43 nM.
